Assay results: patent US20190375708A1 (VenatoRx Pharmaceuticals, Inc., priority 2018, published 2019)

Assays:
[1] = tested on: HBV replication in HepAD38 cells; assay: Anti-HBV replication assay in HepAD38 cells (QPCR of extracellular HBV DNA); format: cell-based, HBV (genotype D, serotype ayw); settings: Hepatitis B virus, 168 h, 7 days incubation, extracellular HBV DNA by QPCR, read-out: Anti-HBV EC50
Summary of the method: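 HepAD38 cells (HepG2 carrying tet-repressible HBV genotype D genome) induced by tetracycline withdrawal, treated 7 days at 37 °C with compound ([…], 1-log10 dilutions). Extracellular HBV DNA quantified by QPCR against a standard curve, normalised to DMSO; EC50 from 4-parameter fit.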

[2] = In vitro cytotoxicity assay (MTT cell viability) in HepG2 cells; format: cell-based, human; settings: human
Summary of the method: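 HepG2 seeded overnight, then 7-day compound exposure (30 μM–1.0 nM, half-log steps), 37 °C. MTT 3-4 h, DMSO solubilization, A492. % of vehicle → CC50, 4-PL fit.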

Row | SMILES | EC50 [1] | CC50 at 7 days [2]
1 | Cc1cc(NC(=O)c2c(C)c(C(=O)C(=O)N[C@@H]3CCc4nc(N)sc4C3)n(C)c2C)ccc1F [Example 76, (R)-5-(2-((2-amino-4,5,6,7-tetrahydrobenzo[d]thiazol-6-yl)amino)-2-oxoacetyl)-N-(4-fluoro-3-methylphenyl)-1,2,4-trimethyl-1H-pyrrole-3-carboxamide] | < 50 nM | 5 to 30 µM
2 | Cc1cc(NC(=O)c2cc(C(=O)C(=O)NC3(CO)CC3)n3c2CCCC3)ccc1F [Example 420, N-(4-fluoro-3-methylphenyl)-3-(2-((1-(hydroxymethyl)cyclopropyl)amino)-2-oxoacetyl)-5,6,7,8-tetrahydroindolizine-1-carboxamide] | 50 to 499 nM | > 30 µM
3 | Cc1cc(NC(=O)c2c(C)c(C(=O)C(=O)NCCc3nnc[nH]3)n(C)c2C)ccc1F [Example 348, 5-(2-((2-(4H-1,2,4-triazol-3-yl)ethyl)amino)-2-oxoacetyl)-N-(4-fluoro-3-methylphenyl)-1,2,4-trimethyl-1H-pyrrole-3-carboxamide] | < 50 nM | > 30 µM
4 | Cc1cc(NC(=O)c2c(C)c(C(=O)C(=O)N[C@@H]3c4ccccc4C[C@@H]3O)n(C)c2C)ccc1F [Example 258, N-(4-fluoro-3-methylphenyl)-5-(2-(((1R,2S)-2-hydroxy-2,3-dihydro-1H-inden-1-yl)amino)-2-oxoacetyl)-1,2,4-trimethyl-1H-pyrrole-3-carboxamide] | < 50 nM | 5 to 30 µM
5 | Cc1c(C(=O)Nc2ccc(F)c(Cl)c2)c2n(c1C(=O)C(=O)N[C@H]1COC[C@@H]1O)CCCC2 [Example 450, N-(3-chloro-4-fluorophenyl)-3-(2-(((3S,4R)-4-hydroxytetrahydrofuran-3-yl)amino)-2-oxoacetyl)-2-methyl-5,6,7,8-tetrahydroindolizine-1-carboxamide] | 50 to 499 nM | > 30 µM
6 | CO[C@H]1CC[C@H](NC(=O)C(=O)c2c(C)c(C(=O)Nc3ccc(F)c(C)c3)c(C)n2C)CC1 [Example 269, N-(4-fluoro-3-methylphenyl)-5-(2-(((1r,4r)-4-methoxycyclohexyl)amino)-2-oxoacetyl)-1,2,4-trimethyl-1H-pyrrole-3-carboxamide] | < 50 nM | 5 to 30 µM
7 | Cc1cc(NC(=O)c2c(C)c(C(=O)C(=O)N[C@H](C(N)=O)[C@@H](C)O)n(C)c2C)ccc1F [Example 42, 5-(2-(((2S,3R)-1-amino-3-hydroxy-1-oxobutan-2-yl)amino)-2-oxoacetyl)-N-(4-fluoro-3-methylphenyl)-1,2,4-trimethyl-1H-pyrrole-3-carboxamide] | < 50 nM | > 30 µM
8 | Cc1cc(NC(=O)c2c(C)c(C(=O)C(=O)NCC(C)(C)N3CCOCC3)n(C)c2C)ccc1F [Example 352, N-(4-fluoro-3-methylphenyl)-1,2,4-trimethyl-5-(2-((2-methyl-2-morpholinopropyl)amino)-2-oxoacetyl)-1H-pyrrole-3-carboxamide] | 50 to 499 nM | > 30 µM
9 | CNC(=O)[C@H](NC(=O)C(=O)c1c(C)c(C(=O)Nc2ccc(F)c(C)c2)c(C)n1C)C(C)(C)C [Example 60, (R)-5-(2-((3,3-dimethyl-1-(methylamino)-1-oxobutan-2-yl)amino)-2-oxoacetyl)-N-(4-fluoro-3-methylphenyl)-1,2,4-trimethyl-1H-pyrrole-3-carboxamide] | < 50 nM | > 30 µM
10 | Cc1cc(NC(=O)c2c(C)c(C(=O)C(=O)NC3CCN(c4cccnc4)CC3)n(C)c2C)ccc1F [Example 663, N-(4-fluoro-3-methylphenyl)-1,2,4-trimethyl-5-(2-oxo-2-((1-(pyridin-3-yl)piperidin-4-yl)amino)acetyl)-1H-pyrrole-3-carboxamide] | < 50 nM | > 30 µM
11 | Cc1c(C(=O)Nc2ccc(F)c(F)c2)c(C)n(C)c1C(=O)C(=O)NC1(c2nnn[nH]2)CCCC1 [Example 698, 5-(2-((1-(1H-tetrazol-5-yl)cyclopentyl)amino)-2-oxoacetyl)-N-(3,4-difluorophenyl)-1,2,4-trimethyl-1H-pyrrole-3-carboxmide] | 50 to 499 nM | > 30 µM
12 | Cc1c(C(=O)Nc2ccc(F)c(C#N)c2)c2n(c1C(=O)C(=O)NC(C)(C)C)CCCC2 [Example 435, 3-(2-(tert-butylamino)-2-oxoacetyl)-N-(3-cyano-4-fluorophenyl)-2-methyl-5,6,7,8-tetrahydroindolizine-1-carboxamide] | > 1000 nM | 5 to 30 µM
13 | CCN(CC)CCNC(=O)C(=O)c1c(C)c(C(=O)Nc2ccc(F)c(C)c2)c(C)n1C [Example 329, 5-(2-((2-(diethylamino)ethyl)amino)-2-oxoacetyl)-N-(4-fluoro-3-methylphenyl)-1,2,4-trimethyl-1H-pyrrole-3-carboxamide] | 500 to 1000 nM | > 30 µM
14 | Cc1cc(NC(=O)c2c(C)c(C(=O)C(=O)NCCN3CCOCC3)n(C)c2C)ccc1F [Example 270, N-(4-fluoro-3-methylphenyl)-1,2,4-trimethyl-5-(2-((2-morpholinoethyl)amino)-2-oxoacetyl)-1H-pyrrole-3-carboxamide] | < 50 nM | > 30 µM
15 | Cc1c(C(=O)Nc2cccc(C(F)F)c2)c(C)n(C)c1C(=O)C(=O)N[C@H]1CC[C@H](O)CC1 [Example 697, N-(3-(difluoromethyl)phenyl)-5-(2-(((1r,4r)-4-hydroxycyclohexyl)amino)-2-oxoacetyl)-1,2,4-trimethyl-1H-pyrrole-3-carboxamide] | < 50 nM | > 30 µM
16 | Cc1nc(C(C)(NC(=O)C(=O)c2c(C)c(C(=O)Nc3ccc(F)c(C)c3)c(C)n2C)C2CC2)no1 (stereo not shown) [Example 716, 5-(2-((1-cyclopropyl-1-(5-methyl-1,2,4-oxadiazol-3-yl)ethyl)amino)-2-oxoacetyl)-N-(4-fluoro-3-methylphenyl)-1,2,4-trimethyl-1H-pyrrole-3-carboxamide] | < 50 nM | > 30 µM
17 | Cc1cc(NC(=O)c2c(C)c(C(=O)C(=O)N[C@@H]3CC[C@@H](O)C3)n(C)c2C)cnc1F [Example 176, N-(6-fluoro-5-methylpyridin-3-yl)-5-(2-(((1R,3R)-3-hydroxycyclopentyl)amino)-2-oxoacetyl)-1,2,4-trimethyl-1H-pyrrole-3-carboxamide] | 50 to 499 nM | > 30 µM
18 | Cc1cc(NC(=O)c2c(C)c(C(=O)C(=O)NC3COCCOC3)n(C)c2C)ccc1F [Example 714, 5-(2-((1,4-dioxepan-6-yl)amino)-2-oxoacetyl)-N-(4-fluoro-3-methylphenyl)-1,2,4-trimethyl-1H-pyrrole-3-carboxamide] | < 50 nM | > 30 µM
19 | Cc1cc(NC(=O)c2c(C)c(C(=O)C(=O)N[C@H]3CC[C@](O)(C(F)(F)F)CC3)n(C)c2C)ccc1F [Example 221, N-(4-fluoro-3-methylphenyl)-5-(2-(((1s,4s)-4-hydroxy-4-(trifluoromethyl)cyclohexyl)amino)-2-oxoacetyl)-1,2,4-trimethyl-1H-pyrrole-3-carboxamide] | < 50 nM | 5 to 30 µM
20 | CC(C)(CO)NC(=O)C(=O)c1cc(C(=O)Nc2ccc(F)c(Cl)c2)c2n1CCCC2 [Example 427, N-(3-chloro-4-fluorophenyl)-3-(2-((1-hydroxy-2-methylpropan-2-yl)amino)-2-oxoacetyl)-5,6,7,8-tetrahydroindolizine-1-carboxamide] | 50 to 499 nM | > 30 µM
